Source: publication PMC8176444 (Molecular Biology Reports, 2021)

Biological target: T1, angiotensin-converting enzyme (ACE) (Ovis aries, UniProt A0ACI6QSL6)
T1 sequence (A0ACI6QSL6 34-1310): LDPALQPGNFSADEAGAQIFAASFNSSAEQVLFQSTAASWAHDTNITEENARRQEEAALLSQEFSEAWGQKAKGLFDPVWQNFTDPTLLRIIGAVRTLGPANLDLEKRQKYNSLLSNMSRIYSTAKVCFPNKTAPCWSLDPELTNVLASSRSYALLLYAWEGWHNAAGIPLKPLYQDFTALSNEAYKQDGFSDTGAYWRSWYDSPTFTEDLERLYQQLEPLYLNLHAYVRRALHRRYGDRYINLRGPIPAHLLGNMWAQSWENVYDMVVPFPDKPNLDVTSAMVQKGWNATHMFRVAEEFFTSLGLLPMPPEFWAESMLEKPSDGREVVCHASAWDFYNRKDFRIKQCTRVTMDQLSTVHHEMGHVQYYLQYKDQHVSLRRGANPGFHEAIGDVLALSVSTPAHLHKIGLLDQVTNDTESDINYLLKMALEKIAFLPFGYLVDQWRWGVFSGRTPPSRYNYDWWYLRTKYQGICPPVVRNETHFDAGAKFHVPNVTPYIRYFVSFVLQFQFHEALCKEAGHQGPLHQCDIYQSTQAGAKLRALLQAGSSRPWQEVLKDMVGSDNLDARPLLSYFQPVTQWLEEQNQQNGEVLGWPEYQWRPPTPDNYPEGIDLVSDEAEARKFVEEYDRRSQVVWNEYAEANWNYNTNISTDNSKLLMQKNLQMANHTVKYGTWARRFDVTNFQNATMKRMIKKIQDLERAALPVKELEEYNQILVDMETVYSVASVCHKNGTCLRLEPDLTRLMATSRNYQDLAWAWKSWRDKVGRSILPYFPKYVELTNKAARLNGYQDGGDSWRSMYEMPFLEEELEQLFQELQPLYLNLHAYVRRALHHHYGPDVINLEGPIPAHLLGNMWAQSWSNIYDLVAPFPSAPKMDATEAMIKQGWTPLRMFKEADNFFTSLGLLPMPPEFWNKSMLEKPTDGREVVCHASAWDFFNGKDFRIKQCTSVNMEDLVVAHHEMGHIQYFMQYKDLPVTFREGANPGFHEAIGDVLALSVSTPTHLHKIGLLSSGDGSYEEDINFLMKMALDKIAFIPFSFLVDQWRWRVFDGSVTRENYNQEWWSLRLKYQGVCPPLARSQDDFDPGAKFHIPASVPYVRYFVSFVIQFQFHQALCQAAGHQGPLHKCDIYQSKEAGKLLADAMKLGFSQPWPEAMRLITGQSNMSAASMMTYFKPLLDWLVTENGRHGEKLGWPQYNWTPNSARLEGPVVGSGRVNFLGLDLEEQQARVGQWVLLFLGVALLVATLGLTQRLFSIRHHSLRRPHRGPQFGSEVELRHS
Experiment: spectrophotometric FAPGG hydrolysis assay at […] nm
Type: biochemical

- Ki: 0.39 nM
Structure (SMILES): C[C@H](CS)C(=O)N1CCC[C@H]1C(=O)O [captopril]
